According to patent publication US20240391936A1, “TETRAHYDROTHIENO PYRIDINE DERIVATIVES AS DDRS INHIBITORS” (CHIESI FARMACEUTICI S.P.A., priority 2021, published 2024):
pIC50, pKi: −log10 of the molar value.

Experiments:
DDR1 [1] = target: T1, DDR1 (Homo sapiens, UniProt Q08345); assay: DDR1 cell based assay (PathHunter U2OS DDR1 assay); design: host or cells: U2OS-DDR1 (PathHunter); settings: U2OS-DDR1 cells, bovine Type II Collagen 20 μg/ml
Outline: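 Receptor activation measured by enzyme-fragment complementation luminescence in engineered U2OS cells. Compound added 30 min before overnight challenge with 20 μg/ml bovine collagen II; data scaled between vehicle and collagen-stimulated controls, IC50 derived by four-parameter variable-slope fitting.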

DDR1 [2] = target: T1, DDR1; assay: DDR1 binding assay (LanthaScreen Europium Kinase Binding assay); design: purchased Carna Biosciences; settings: binding assay, 5 nM DDR1, 20 nM Kinase Tracer 178; Ki from IC50 by Cheng-Prusoff; read-out: Ki DDR1
Outline: (§1)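 TR-FRET tracer-displacement format: 665/615 nm emission ratio (340 nm excitation) gave IC50 by 4-parameter fit, then Ki via Cheng-Prusoff. Each kinase at 5 nM with 2 nM Eu-anti-GST antibody and Tracer 178 (DDR1 20 nM, DDR2 10 nM), 1 h, room temperature, HEPES pH 7.5 buffer.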

DDR2 [3] = target: T2, DDR2 (Homo sapiens, UniProt Q16832); assay: DDR2 cell based assay (phospho-ELISA in HEK293T-DDR2 recombinant cells); design: expressed in transfected cells; host or cells: HEK293T-DDR2 recombinant cells; settings: bovine Type II Collagen 50 μg/ml
T2 sequence (Q16832 22-855): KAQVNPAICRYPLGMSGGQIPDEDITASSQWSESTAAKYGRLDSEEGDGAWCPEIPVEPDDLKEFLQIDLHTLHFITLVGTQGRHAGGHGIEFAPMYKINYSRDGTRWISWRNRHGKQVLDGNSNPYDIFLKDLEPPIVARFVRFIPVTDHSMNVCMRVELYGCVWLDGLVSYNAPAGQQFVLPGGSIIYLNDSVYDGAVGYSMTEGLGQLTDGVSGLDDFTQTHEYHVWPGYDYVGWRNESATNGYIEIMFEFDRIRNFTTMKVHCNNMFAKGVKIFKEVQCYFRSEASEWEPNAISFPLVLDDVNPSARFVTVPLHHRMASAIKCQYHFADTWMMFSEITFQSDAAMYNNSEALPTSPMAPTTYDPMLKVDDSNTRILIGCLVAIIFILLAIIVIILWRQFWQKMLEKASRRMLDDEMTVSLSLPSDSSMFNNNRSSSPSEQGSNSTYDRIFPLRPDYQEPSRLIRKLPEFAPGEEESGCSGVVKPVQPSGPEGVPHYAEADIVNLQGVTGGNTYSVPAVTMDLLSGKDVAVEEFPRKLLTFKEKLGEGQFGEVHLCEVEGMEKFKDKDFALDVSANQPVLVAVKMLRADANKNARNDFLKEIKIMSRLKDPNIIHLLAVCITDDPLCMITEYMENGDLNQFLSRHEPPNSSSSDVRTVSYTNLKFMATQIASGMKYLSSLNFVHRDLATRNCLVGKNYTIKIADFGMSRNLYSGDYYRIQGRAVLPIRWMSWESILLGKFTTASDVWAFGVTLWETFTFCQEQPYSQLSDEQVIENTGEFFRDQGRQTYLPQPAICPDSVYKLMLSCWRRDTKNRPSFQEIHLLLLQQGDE
Description: The inhibition of DDR2 phosphorylation by compounds was evaluated in HEK293T-DDR2 recombinant cells by phospho-ELISA assay. Briefly, HEK293T-DDR2 cells were seeded in poly-D-lysine-coated 24-well plates at a density of 250.000 cells/well and incubated for 1.5 hours at 37° C. and 5% CO2 in DMEM+10% FBS. After that, the medium was changed to serum-free DMEM and cells were incubated for 3 hours. Then. test compounds were added at different concentrations 30 minutes before stimulation with bovine Type II Collagen at 50 μg/ml for further 3 hours. For DDR2 phospho-ELISA assay (DuoSet IC Human Phospho-DDR2; R&D Systems), protein extracts were obtained by adding 60 μl/well of lysis buffer prepared according to the manufacturer's instructions. Protein concentration in the samples was determined by BCA assay and the levels of phospho-DDR2 were determined following R&D Systems indications. Raw data were normalized to maximal inhibition control (0% for normalization) and positive control (100% for normalization; cells treated with […] collagen II) and IC50 parameters were calculated in GraphPad Prism 8.0 software, using sigmoidal dose-response curve fitting with variable slope.

DDR2 [4] = target: T2, DDR2; assay: DDR2 binding assay (LanthaScreen Europium Kinase Binding assay); design: purchased Life Technologies; settings: binding assay, 5 nM DDR2, 10 nM Kinase Tracer 178; Ki from IC50 by Cheng-Prusoff; read-out: Ki DDR2
Outline: as §1

T1 sequence (Q08345 19-913): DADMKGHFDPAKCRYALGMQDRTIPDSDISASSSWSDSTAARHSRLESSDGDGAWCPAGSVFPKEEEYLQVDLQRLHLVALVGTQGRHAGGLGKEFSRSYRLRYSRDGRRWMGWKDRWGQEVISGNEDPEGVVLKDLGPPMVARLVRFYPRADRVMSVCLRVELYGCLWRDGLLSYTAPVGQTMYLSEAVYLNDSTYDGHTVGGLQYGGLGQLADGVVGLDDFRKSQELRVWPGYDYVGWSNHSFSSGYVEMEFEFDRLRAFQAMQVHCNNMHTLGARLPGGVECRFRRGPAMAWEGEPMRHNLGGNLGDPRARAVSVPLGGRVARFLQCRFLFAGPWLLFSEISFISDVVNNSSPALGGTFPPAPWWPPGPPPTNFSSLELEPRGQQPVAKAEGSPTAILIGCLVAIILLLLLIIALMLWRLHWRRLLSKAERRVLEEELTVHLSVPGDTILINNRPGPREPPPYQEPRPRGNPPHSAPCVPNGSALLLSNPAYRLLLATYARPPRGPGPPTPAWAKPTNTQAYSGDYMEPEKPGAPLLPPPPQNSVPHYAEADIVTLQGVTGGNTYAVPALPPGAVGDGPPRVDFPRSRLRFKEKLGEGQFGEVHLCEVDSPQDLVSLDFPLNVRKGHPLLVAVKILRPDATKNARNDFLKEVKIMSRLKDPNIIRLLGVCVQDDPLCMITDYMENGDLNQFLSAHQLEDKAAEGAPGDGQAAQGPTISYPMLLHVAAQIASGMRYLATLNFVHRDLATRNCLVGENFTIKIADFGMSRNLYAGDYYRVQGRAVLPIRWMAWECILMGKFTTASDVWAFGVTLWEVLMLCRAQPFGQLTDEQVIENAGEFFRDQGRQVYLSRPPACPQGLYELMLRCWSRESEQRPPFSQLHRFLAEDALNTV

pIC50 (DDR1 [1])	pKi (DDR1 [2])	pIC50 (DDR2 [3])	pKi (DDR2 [4])	Compound
> 7.60	> 7.60	7.10 to 7.30	> 7.60	CC1Cc2c(C(=O)Nc3cccc(C(F)(F)F)c3)csc2CN1Cc1cnc2cnccn12 (single isomer, unassigned) [Example 104, 6-(imidazo[1,2-a]pyrazin-3-ylmethyl)-5-methyl-N-(3-(trifluoromethyl)phenyl)-4,5,6,7-tetrahydrothieno[2,3-c]pyridine-3-carboxamide]
> 7.60	> 7.60	7.30 to 7.60	> 7.60	CC1c2scc(C(=O)Nc3cccc(C(F)(F)F)c3)c2CCN1Cc1cnc2[nH]ccc2c1 (single isomer, unassigned) [Example 106, 6-((1H-pyrrolo[2,3-b]pyridin-5-yl)methyl)-7-methyl-N-(3-(trifluoromethyl)phenyl)-4,5,6,7-tetrahydrothieno[2,3-c]pyridine-3-carboxamide]
7.10 to 7.30	> 7.60	–	> 7.60	CN(C)Cc1ccc(NC(=O)c2csc3c2CCN(C(=O)c2cnn4ccncc24)C3)cc1C(F)(F)F [Example 171, N-(4-((dimethylamino)methyl)-3-(trifluoromethyl)phenyl)-6-(pyrazolo[1,5-a]pyrazine-3-carbonyl)-4,5,6,7-tetrahydro thieno[2,3-c]pyridine-3-carboxamide]
7.30 to 7.60	> 7.60	–	> 7.60	O=C(Nc1cc(CN2CCOCC2)cc(C(F)(F)F)c1)c1csc2c1CCN(C(=O)c1cnn3ccncc13)C2 [Example 172, N-(3-(morpholinomethyl)-5-(trifluoromethyl)phenyl)-6-(pyrazolo[1,5-a]pyrazine-3-carbonyl)-4,5,6,7-tetrahydrothieno[2,3-c]pyridine-3-carboxamide]
7.30 to 7.60	> 7.60	–	> 7.60	O=C(Nc1cc(C(F)(F)F)cnn1)c1csc2c1CCN(C(=O)c1cnc3ccccn13)C2 [Example 173, 6-(imidazo[1,2-a]pyridine-3-carbonyl)-N-(5-(trifluoromethyl)pyridazin-3-yl)-4,5,6,7-tetrahydrothieno[2,3-c]pyridine-3-carboxamide]
7.10 to 7.30	> 7.60	–	> 7.60	CC(C)(C)c1cc(NC(=O)c2csc3c2CCN(C(=O)c2cnn4ccncc24)C3)no1 [Example 175, N-(5-(tert-butyl)isoxazol-3-yl)-6-(pyrazolo[1,5-a]pyrazine-3-carbonyl)-4,5,6,7-tetrahydrothieno[2,3-c]pyridine-3-carboxamide]
7.10 to 7.30	> 7.60	–	> 7.60	O=C(Nc1ccc(Cl)c(C(F)(F)F)c1)c1csc2c1CCN(C(=O)c1cnn3ccncc13)C2 [Example 176, N-(4-chloro-3-(trifluoromethyl)phenyl)-6-(pyrazolo[1,5-a]pyrazine-3-carbonyl)-4,5,6,7-tetrahydrothieno[2,3-c]pyridine-3-carboxamide]
7.10 to 7.30	> 7.60	–	> 7.60	CN1CCN(c2cc(NC(=O)c3csc4c3CCN(C(=O)c3cnc5ccccn35)C4)cc(C(F)(F)F)c2)CC1 [Example 177, 6-(imidazo[1,2-a]pyridine-3-carbonyl)-N-(3-(4-methylpiperazin-1-yl)-5-(trifluoromethyl)phenyl)-4,5,6,7-tetrahydrothieno [2,3-c]pyridine-3-carboxamide]
7.10 to 7.30	> 7.60	–	> 7.60	CN1CCN(c2cc(NC(=O)c3csc4c3CCN(C(=O)c3cnn5ccncc35)C4)cc(C(F)(F)F)c2)CC1 [Example 178, N-(3-(4-methylpiperazin-1-yl)-5-(trifluoromethyl)phenyl)-6-(pyrazolo[1,5-a]pyrazine-3-carbonyl)-4,5,6,7-tetrahydrothieno[2,3-c]pyridine-3-carboxamide]
7.10 to 7.30	> 7.60	–	> 7.60	CCC(C)(C)c1cc(NC(=O)c2csc3c2CCN(C(=O)c2cnn4ccncc24)C3)on1 [Example 179, N-(3-(tert-pentyl)isoxazol-5-yl)-6-(pyrazolo[1,5-a]pyrazine-3-carbonyl)-4,5,6,7-tetrahydrothieno[2,3-c]pyridine-3-carboxamide]
7.30 to 7.60	> 7.60	–	> 7.60	O=C(Nc1ccc(CO)c(C(F)(F)F)c1)c1csc2c1CCN(C(=O)c1cnn3ccncc13)C2 [Example 180, N-(4-(hydroxymethyl)-3-(trifluoromethyl)phenyl)-6-(pyrazolo[1,5-a]pyrazine-3-carbonyl)-4,5,6,7-tetrahydrothieno[2,3-c]pyridine-3-carboxamide]
7.30 to 7.60	> 7.60	–	> 7.60	O=C(Nc1cc(N2CCOCC2)cc(C(F)(F)F)c1)c1csc2c1CCN(C(=O)c1cnc3ccccn13)C2 [Example 181, 6-(imidazo[1,2-a]pyridine-3-carbonyl)-N-(3-morpholino-5-(trifluoromethyl)phenyl)-4,5,6,7-tetrahydrothieno [2,3-c]pyridine-3-carboxamide]
> 7.60	> 7.60	–	> 7.60	O=C(Nc1cc(N2CCOCC2)cc(C(F)(F)F)c1)c1csc2c1CCN(C(=O)c1cnn3ccncc13)C2 [Example 182, N-(3-morpholino-5-(trifluoromethyl)phenyl)-6-(pyrazolo[1,5-a]pyrazine-3-carbonyl)-4,5,6,7-tetrahydrothieno[2,3-c]pyridine-3-carboxamide]
7.10 to 7.30	> 7.60	–	> 7.60	CC(C)Cc1cc(NC(=O)c2csc3c2CCN(C(=O)c2cnn4ccncc24)C3)on1 [Example 183, N-(3-isobutylisoxazol-5-yl)-6-(pyrazolo[1,5-a]pyrazine-3-carbonyl)-4,5,6,7-tetrahydrothieno[2,3-c]pyridine-3-carboxamide]
> 7.60	> 7.60	–	> 7.60	CC1CN(C(=O)c2cnc3ccccn23)Cc2scc(C(=O)Nc3cccc(C(F)(F)F)c3)c21 (centres unmarked) [Example 185, 6-(imidazo[1,2-a]pyridine-3-carbonyl)-4-methyl-N-(3-(trifluoromethyl)phenyl)-4,5,6,7-tetrahydrothieno[2,3-c]pyridine-3-carboxamide]
> 7.60	> 7.60	–	> 7.60	O=C(Nc1cncc(OC(F)(F)F)c1)c1csc2c1CCN(C(=O)c1cnc3ccccn13)C2 [Example 186, 6-(imidazo[1,2-a]pyridine-3-carbonyl)-N-(5-(trifluoromethoxy)pyridin-3-yl)-4,5,6,7-tetrahydrothieno[2,3-c]pyridine-3-carboxamide]
> 7.60	> 7.60	–	> 7.60	O=C(Nc1cc(CO)cc(C(F)(F)F)c1)c1csc2c1CCN(C(=O)c1cnn3ccncc13)C2 [Example 187, N-(3-(hydroxymethyl)-5-(trifluoromethyl)phenyl)-6-(pyrazolo[1,5-a]pyrazine-3-carbonyl)-4,5,6,7-tetrahydrothieno[2,3-c]pyridine-3-carboxamide]
